Results reported in US9969726B2, “Metabotropic glutamate receptor negative allosteric modulators (NAMS) and uses thereof” (Sanford-Burnham Medical Research Institute, priority 2014, dated 2018).
Like-named read-outs stand apart in the source and are kept apart here.

Key:
[1] = target: rat mGlu2 receptor (Rattus norvegicus (Rat), UniProt P31421); test: mGlu2 in vitro GIRK thallium flux assay; type: cell-based; details: NAM, EC80 glutamate, HEK-293 GIRK cells
Outline: (§1)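 Cells expressing rat mGlu2 or mGlu3 with GIRK, plated overnight at 37 °C. Test compounds (0.3% DMSO, 10-point 1:3 series) preincubated 2.5 or 60 min, then thallium buffer plus EC80 glutamate added. Fluorescence slope 5–15 s after addition, normalised to vehicle and maximal agonist, fitted by four-parameter logistic.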

[2] = target: rat mGlu3 receptor (Rattus norvegicus (Rat), UniProt P31422); test: mGlu3 in vitro GIRK thallium flux assay; type: cell-based; details: NAM; 2.5 min compound incubation; EC80 glutamate; HEK-293 GIRK cells
Outline: as §1

[3] = Microsomal stability in vitro assay; type: in vitro ADME; details: rat liver microsomes 1 mg/mL, 4 μM compound, 2 mM NADPH
Experimental: Pooled rat liver microsomes (BD Biosciences, #452701) were preincubated with test compounds at 37.5° C. for 5 min in the absence of NADPH. The reaction was initiated by addition of NADPH and incubated under the same conditions. The final incubation concentrations were 4 μM test compound, 2 mM NADPH, and 1 mg/mL (total protein) liver microsomes in phosphate-buffered saline (PBS) at pH 7.4. One aliquot (100 μL) of the incubation mixture was withdrawn at 15 min time points and combined immediately with 100 μL of ACN/MeOH. After mixing, the sample was centrifuged at approximately 13000 rpm for 12 min. The supernatant was filtered and transferred into an autosampler vial and the amount of test compound was quantified using a Shimadzu LCMS 2010EV mass spectrometer. The change of the AUC (area under the curve) of the parent compound as a function of time was used as a measure of microsomal stability. Test compounds were run in duplicate with a positive control.

[4] = Plasma stability in vitro assay; type: in vitro ADME; details: rat plasma, 100 μM, 37.5° C.
Experimental: A 20 μL aliquot of a 10 mM solution in DMSO of the test compound was added to 2.0 mL of heparinized rat plasma (Lampire, P1-150N) to obtain a 100 μM final solution. The mixture was incubated for 1 h at 37.5° C. Aliquots of 100 μL were taken at 15 min intervals and diluted with 100 μL of MeOH/ACN. After mixing, the sample was centrifuged at approximately 13000 rpm for 12 min. The supernatant was filtered and transferred into an autosampler vial and the amount of test compound was quantified using the Shimadzu LCMS-2010EV system. The change of the AUC of the parent compound in function of time was used as a measure of plasma stability.

[5] = 2.5 min compound incubation, read-out: mGlu2 EC50 (μM) (2.5 min)
[6] = mGlu2 EC50 (μM) (60 min), 60 min compound incubation
[7] = read-out: mGlu2 EC50 (μM) (60 min), 60 min compound incubation

Sequence of rat mGlu3 receptor (P31422 23-879): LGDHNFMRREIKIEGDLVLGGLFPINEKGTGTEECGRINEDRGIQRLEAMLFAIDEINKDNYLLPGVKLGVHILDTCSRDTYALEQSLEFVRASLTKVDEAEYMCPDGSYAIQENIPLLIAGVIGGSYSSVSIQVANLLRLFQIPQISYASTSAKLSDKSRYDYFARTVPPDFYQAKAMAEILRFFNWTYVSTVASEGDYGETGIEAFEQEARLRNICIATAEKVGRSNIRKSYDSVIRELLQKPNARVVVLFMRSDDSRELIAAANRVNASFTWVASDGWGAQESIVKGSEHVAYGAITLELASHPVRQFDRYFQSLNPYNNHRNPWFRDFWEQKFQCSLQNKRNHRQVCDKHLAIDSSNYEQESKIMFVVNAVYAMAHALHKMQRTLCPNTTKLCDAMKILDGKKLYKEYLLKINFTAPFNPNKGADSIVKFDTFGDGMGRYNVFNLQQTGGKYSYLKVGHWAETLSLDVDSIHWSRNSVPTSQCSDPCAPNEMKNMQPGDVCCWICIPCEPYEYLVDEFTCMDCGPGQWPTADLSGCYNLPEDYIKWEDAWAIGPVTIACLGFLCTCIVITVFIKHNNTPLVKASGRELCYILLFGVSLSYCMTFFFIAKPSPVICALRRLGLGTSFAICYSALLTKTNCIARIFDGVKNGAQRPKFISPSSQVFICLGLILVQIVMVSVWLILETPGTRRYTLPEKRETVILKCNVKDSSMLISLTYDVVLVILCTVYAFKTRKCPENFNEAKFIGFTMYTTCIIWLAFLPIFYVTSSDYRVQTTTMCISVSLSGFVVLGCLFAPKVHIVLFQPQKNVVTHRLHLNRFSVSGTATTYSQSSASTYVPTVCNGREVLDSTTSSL
Sequence of rat mGlu2 receptor (P31421 19-872): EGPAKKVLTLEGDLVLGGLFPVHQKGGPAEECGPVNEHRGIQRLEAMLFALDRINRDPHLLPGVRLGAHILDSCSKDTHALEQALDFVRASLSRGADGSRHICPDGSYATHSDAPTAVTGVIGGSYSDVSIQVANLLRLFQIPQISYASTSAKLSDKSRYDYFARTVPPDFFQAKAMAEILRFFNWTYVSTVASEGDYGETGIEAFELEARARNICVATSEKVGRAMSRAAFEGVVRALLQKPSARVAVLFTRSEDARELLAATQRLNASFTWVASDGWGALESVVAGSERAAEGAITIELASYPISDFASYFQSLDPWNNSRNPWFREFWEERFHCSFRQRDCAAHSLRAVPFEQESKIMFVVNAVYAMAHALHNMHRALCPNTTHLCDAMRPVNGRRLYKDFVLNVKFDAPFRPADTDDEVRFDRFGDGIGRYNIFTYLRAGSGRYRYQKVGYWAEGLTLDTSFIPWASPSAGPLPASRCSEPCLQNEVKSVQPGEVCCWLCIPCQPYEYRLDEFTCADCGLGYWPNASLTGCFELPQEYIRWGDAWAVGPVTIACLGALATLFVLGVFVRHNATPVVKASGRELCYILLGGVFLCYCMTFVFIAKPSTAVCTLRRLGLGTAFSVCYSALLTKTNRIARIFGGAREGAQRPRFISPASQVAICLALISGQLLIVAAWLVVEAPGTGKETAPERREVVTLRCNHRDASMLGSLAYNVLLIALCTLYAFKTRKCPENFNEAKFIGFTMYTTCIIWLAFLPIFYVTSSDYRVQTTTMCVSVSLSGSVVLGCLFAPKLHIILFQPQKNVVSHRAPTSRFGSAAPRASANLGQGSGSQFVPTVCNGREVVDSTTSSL

EC50 [1, 6]	Microsomal Stability, Percent Remaining @ 1 hour [3]	Plasma Stability, Percent Remaining @ 1 hour [4]	SMILES	EC50 [1, 5]	EC50 [2]	EC50 [1, 7]
0.48 µM	3%	93%	O=C(O)c1cc(-c2cccc(-c3csc(-c4ccccc4)n3)c2)ccc1F [Example 1, 4-Fluoro-3′-(2-phenylthiazol-4-yl)biphenyl-3-carboxylic Acid]	0.33 µM	1.21 µM	–
0.35 µM	4%	98%	O=C(O)c1cc(F)cc(-c2cccc(-c3csc(-c4ccccc4)n3)c2)c1 [Example 9, 5-Fluoro-3′-(2-phenylthiazol-4-yl)biphenyl-3-carboxylic Acid]	0.64 µM	> 10 µM	–
0.05 µM	2%	65%	O=C(O)c1cc(-c2cccc(-c3nsc(-c4ccccc4)n3)c2)ccc1F [Example 38, 4-Fluoro-3′-(5-phenyl-1,2,4-thiadiazol-3-yl)biphenyl-3-carboxylic Acid]	0.1 µM	0.52 µM	–
–	–	–	Cc1cc2c(cc1C(F)(F)F)NC(=O)CC(c1cccc(Oc3cc(F)cc(F)c3)c1)=N2 [Example 146, 4-(3-(3,5-difluorophenoxy)phenyl)-7-methyl-8-(trifluoromethyl)-1H-benzo[b][1,4]diazepin-2(3H)-one]	> 10 µM	> 10 µM	> 10 µM
–	–	–	Cc1cc2c(cc1C(F)(F)F)NC(=O)CC(c1cccc(Oc3ccccn3)c1)=N2 [Example 150, 7-Methyl-4-(3-(pyridin-2-yloxy)phenyl)-8-(trifluoromethyl)-1H-benzo[b][1,4]diazepin-2(3H)-one]	2.79 µM	1.52 µM	–
–	–	–	Cc1cc(-c2cccc(C3CC(=O)Nc4cc(NC(=O)Oc5ccccc5)ccc4N3)c2)cc(C)n1 (stereo not shown) [Example 163, Phenyl (2-(3-(2,6-dimethylpyridin-4-yl)phenyl)-4-oxo-2,3,4,5-tetrahydro-1H-benzo[b][1,4]diazepin-7-yl)carbamate]	> 10 µM	> 10 µM	> 10 µM
–	–	–	N#Cc1cc(C2=Nc3ccc(F)cc3NC(=O)C2)ccn1 [Example 180, 4-(8-Fluoro-2-oxo-2,3-dihydro-1H-benzo[b][1,4]diazepin-4-yl)picolinonitrile]	0.88 µM	0.86 µM	0.31 µM
–	–	–	N#Cc1cc(C2=Nc3ccc(Cl)cc3NC(=O)C2)ccn1 [Example 181, 4-(8-Chloro-2-oxo-2,3-dihydro-1H-benzo[b][1,4]diazepin-4-yl)picolinonitrile]	> 10 µM	> 10 µM	–
–	–	–	N#Cc1cc(C2=Nc3ccc(I)cc3NC(=O)C2)ccn1 [Example 183, 4-(8-Iodo-2-oxo-2,3-dihydro-1H-benzo[b][1,4]diazepin-4-yl)picolinonitrile]	0.11 µM	0.07 µM	0.03 µM
–	–	–	N#Cc1cc(C2=Nc3ccc(C#Cc4ccc(F)cc4)cc3NC(=O)C2)ccn1 [Example 185, 4-(8-((4-Fluorophenyl)ethynyl)-2-oxo-2,3-dihydro-1H-benzo[b][1,4]diazepin-4-yl)picolinonitrile]	> 10 µM	1.45 µM	–
–	–	–	O=C1CC(c2ccnc(Cl)c2)=Nc2ccc(-c3ccc(Cl)cc3)cc2N1 [Example 186, 8-(4-Chlorophenyl)-4-(2-chloropyridin-4-yl)-1,3-dihydro-2H-benzo[b][1,4]diazepin-2-one]	2.42 µM	1.36 µM	1.01 µM
–	–	–	O=C1CC(c2ccnc(Cl)c2)=Nc2ccc(-c3ccccc3F)cc2N1 [Example 187, 4-(2-Chloropyridin-4-yl)-8-(2-fluorophenyl)-1,3-dihydro-2H-benzo[b][1,4]diazepin-2-one]	0.98 µM	0.71 µM	–
–	–	–	O=C1CC(c2ccnc(Cl)c2)=Nc2ccc(-c3cccnc3F)cc2N1 [Example 188, 4-(2-Chloropyridin-4-yl)-8-(2-fluoropyridin-3-yl)-1,3-dihydro-2H-benzo[b][1,4]diazepin-2-one]	> 10 µM	1.7 µM	–
–	–	–	O=C1CC(c2ccnc(Cl)c2)=Nc2ccc(C(F)(F)F)cc2N1 [Example 189, 4-(2-Chloropyridin-4-yl)-8-(trifluoromethyl)-1,3-dihydro-2H-benzo[b][1,4]diazepin-2-one]	0.29 µM	0.28 µM	0.08 µM
–	–	–	O=C1CC(c2ccnc(Cl)c2)=Nc2ccc(-c3cc(F)cc(F)c3)cc2N1 [Example 190, 4-(2-Chloropyridin-4-yl)-8-(3,5-difluorophenyl)-1,3-dihydro-2H-benzo[b][1,4]diazepin-2-one]	> 10 µM	> 10 µM	–
–	–	–	CCOc1ccc(-c2ccc3c(c2)NC(=O)CC(c2ccnc(Cl)c2)=N3)cc1 [Example 192, 4-(2-Chloropyridin-4-yl)-8-(4-ethoxyphenyl)-1,3-dihydro-2H-benzo[b][1,4]diazepin-2-one]	> 10 µM	> 10 µM	–
–	–	–	Cc1cccc(-c2ccc3c(c2)NC(=O)CC(c2ccnc(Cl)c2)=N3)c1 [Example 193, 4-(2-Chloropyridin-4-yl)-8-(m-tolyl)-1,3-dihydro-2H-benzo[b][1,4]diazepin-2-one]	> 10 µM	> 10 µM	0.95 µM
–	–	–	O=C1CC(c2ccnc(Br)c2)=Nc2ccc(-c3ccc(C(F)(F)F)cc3C(F)(F)F)cc2N1 [Example 194, 8-(2,4-Bis(trifluoromethyl)phenyl)-4-(2-bromopyridin-4-yl)-1,3-dihydro-2H-benzo[b][1,4]diazepin-2-one]	> 10 µM	> 10 µM	3.47 µM
–	–	–	COc1ccc(-c2ccc3c(c2)NC(=O)CC(c2ccnc(Cl)c2)=N3)cc1OC [Example 195, 4-(2-Chloropyridin-4-yl)-8-(3,4-dimethoxyphenyl)-1,3-dihydro-2H-benzo[b][1,4]diazepin-2-one]	3.83 µM	1.39 µM	2.62 µM
–	–	–	Cc1cc(Cl)ccc1-c1ccc2c(c1)NC(=O)CC(c1ccnc(Cl)c1)=N2 [Example 196, 8-(4-Chloro-2-methylphenyl)-4-(2-chloropyridin-4-yl)-1,3-dihydro-2H-benzo[b][1,4]diazepin-2-one]	3.59 µM	2.94 µM	0.6 µM
–	–	–	O=C1CC(c2ccnc(Cl)c2)=Nc2ccc(-c3ccccc3)cc2N1 [Example 197, 4-(2-Chloropyridin-4-yl)-8-phenyl-1,3-dihydro-2H-benzo[b][1,4]diazepin-2-one]	> 10 µM	> 10 µM	–
–	–	–	O=C1CC(c2ccnc(-c3ccccc3)c2)=Nc2ccc(C(F)(F)F)cc2N1 [Example 198, 4-(2-Phenylpyridin-4-yl)-8-(trifluoromethyl)-1,3-dihydro-2H-benzo[b][1,4]diazepin-2-one]	> 10 µM	0.46 µM	0.26 µM
–	–	–	O=C1CC(c2ccnc(Cl)c2)=Nc2ccc(-c3ccc(Br)nc3)cc2N1 [Example 199, 8-(6-Bromopyridin-3-yl)-4-(2-chloropyridin-4-yl)-1,3-dihydro-2H-benzo[b][1,4]diazepin-2-one]	1.7 µM	1.82 µM	4.27 µM
–	–	–	O=C1CC(c2ccnc(-c3ccccc3F)c2)=Nc2ccc(C(F)(F)F)cc2N1 [Example 200, 4-(2-(2-Fluorophenyl)pyridin-4-yl)-8-(trifluoromethyl)-1,3-dihydro-2H-benzo[b][1,4]diazepin-2-one]	> 10 µM	0.75 µM	0.22 µM
–	–	–	O=C1CC(c2ccnc(Cl)c2)=Nc2ccc(-c3ccc(C(F)(F)F)cc3F)cc2N1 [Example 201, 4-(2-Chloropyridin-4-yl)-8-(2-fluoro-4-(trifluoromethyl)phenyl)-1,3-dihydro-2H-benzo[b][1,4]diazepin-2-one]	> 10 µM	1.61 µM	0.52 µM
–	–	–	Cc1cc2c(cc1C(F)(F)F)NC(=O)CC(c1cccc(C#Cc3ccccc3)c1)=N2 [Example 202, 7-Methyl-4-(3-phenylethynyl-phenyl)-8-trifluoromethyl-1,3-dihydro-benzo[b][1,4]diazepin-2-one]	> 10 µM	> 10 µM	> 10 µM
–	–	–	Cc1cc2c(cc1C(F)(F)F)NC(=O)CC(c1cccc(C#CCO)c1)=N2 [Example 203, 4-[3-(3-Hydroxy-prop-1-ynyl)-phenyl]-7-methyl-8-trifluoromethyl-1,3-dihydro-benzo[b][1,4]diazepin-2-one]	0.65 µM	0.39 µM	0.02 µM
